For 13 compounds, IC50 and DC50 results are on record in patent US20240246977A1, “DEGRADATION OF BRUTON'S TYROSINE KINASE (BTK) BY CONJUGATION OF BTK INHIBITORS WITH E3 LIGASE LIGAND AND METHOD OF USE” (BeiGene Switzerland GmbH, priority 2021, published 2024).

One assay has as its system HEK-293 cells. Description: HEK-293 cytotoxicity detection (CellTiter-Glo). To be noted: Homo sapiens, 72 h, 72 h incubation, CellTiter-Glo luminescence, read-out: HEK293. It is filed as cell-based. The essentials: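 HEK-293 cells exposed 72 h to 8 compounds doses (4-fold dilutions, top stock 5 mM at 500×) in 0.2% DMSO. Viability by CellTiter-Glo luminescence; inhibition normalised to DMSO high control and low control, IC50 from four-parameter curve fit.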

The target of a further assay is BTK (Homo sapiens, UniProt Q06187). Nature of the assay: BTK cell degradation in TMD-8 cells, HTRF assay. Type of assay: cell-based. The arrangement: endogenous in cells; host or cells: TMD-8 cells. The following applies: 6 h treatment, IC50 (DC50) of BTK degradation. The essentials:
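TMD-8 cells treated 6 h with 8-dose series (6-fold dilutions, 0.2% DMSO final), then lysed and BTK quantified by HTRF (337/665/620 nm) after overnight antibody incubation at room temperature. Degradation normalized to DMSO high and low controls; DC50 and Dmax from four-parameter fit.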

Each structure is given as a SMILES string. Bounds are passed on as bounds.

Sequence of BTK (Q06187 whole entry): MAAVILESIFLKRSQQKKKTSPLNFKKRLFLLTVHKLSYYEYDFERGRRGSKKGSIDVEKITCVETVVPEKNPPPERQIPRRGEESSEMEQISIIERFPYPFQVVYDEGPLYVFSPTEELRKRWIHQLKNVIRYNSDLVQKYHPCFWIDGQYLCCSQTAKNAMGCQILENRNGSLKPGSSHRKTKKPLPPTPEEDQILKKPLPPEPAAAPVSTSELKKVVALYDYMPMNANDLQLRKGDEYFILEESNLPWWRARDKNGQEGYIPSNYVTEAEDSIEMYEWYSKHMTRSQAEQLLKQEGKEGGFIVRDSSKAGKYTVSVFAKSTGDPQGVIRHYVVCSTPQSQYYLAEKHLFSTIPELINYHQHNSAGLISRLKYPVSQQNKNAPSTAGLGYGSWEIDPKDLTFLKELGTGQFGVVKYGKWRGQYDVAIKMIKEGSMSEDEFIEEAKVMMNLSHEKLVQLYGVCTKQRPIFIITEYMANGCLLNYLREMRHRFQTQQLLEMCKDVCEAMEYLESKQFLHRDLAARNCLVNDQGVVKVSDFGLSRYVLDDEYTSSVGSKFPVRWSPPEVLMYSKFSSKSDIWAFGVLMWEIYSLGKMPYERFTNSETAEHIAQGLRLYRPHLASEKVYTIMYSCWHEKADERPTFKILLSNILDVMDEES

Regarding `COc1ccccc1C(=O)NCc1ccc(-c2nn3c(c2C(N)=O)Nc2ccc(N4CCN(CC5CCN(c6ccc(N7CCC(=O)NC7=O)cc6)CC5)CC4)cc2CC3)c(F)c1C` [Example C46, 7-(4-((1-(4-(2,4-dioxotetrahydropyrimidin-1(2H)-yl)phenyl)piperidin-4-yl)methyl)piperazin-1-yl)-2-(2-fluoro-4-((2-methoxybenzamido)methyl)-3-methylphenyl)-9,10-dihydro-4H-benzo[d]pyrazolo[1,5-a][1,3]diazepine-3-carboxamide], the IC50 in the assay with HEK-293 cells is greater than 10000 nM. The 50% degradation concentration (DC50) at BTK is 4.38 nM.
As to `COc1ccnc(NC(=O)c2ccc(-c3nn4c(c3C(N)=O)Nc3ccc(N5CCN(CC6CCN(c7ccc(N8CCC(=O)NC8=O)cc7)CC6)CC5)cc3CC4)cc2)c1` [Example B9, 7-(4-((1-(4-(2,4-dioxotetrahydropyrimidin-1(2H)-yl)phenyl)piperidin-4-yl)methyl)piperazin-1-yl)-2-(4-((4-methoxypyridin-2-yl)carbamoyl)phenyl)-9,10-dihydro-4H-benzo[d]pyrazolo[1,5-a][1,3]diazepine-3-carboxamide], the IC50 in the assay with HEK-293 cells is greater than 10000 nM. Moreover, the DC50 on BTK was found to be 6.14 nM.
On the same counts, the results for `Cc1c(C(=O)Nc2cccc(-c3ccccc3)n2)ccc(-c2nn3c(c2C(N)=O)Nc2ccc(N4CCN(CC5CCN(c6ccc(N7CCC(=O)NC7=O)cc6)CC5)CC4)cc2CC3)c1F` [Example B48, 7-(4-((1-(4-(2,4-dioxotetrahydropyrimidin-1(2H)-yl)phenyl)piperidin-4-yl)methyl)piperazin-1-yl)-2-(2-fluoro-3-methyl-4-((6-phenylpyridin-2-yl)carbamoyl)phenyl)-9,10-dihydro-4H-benzo[d]pyrazolo[1,5-a][1,3]diazepine-3-carboxamide] are greater than 10000 nM and 4.2 nM.
As for `Cc1cccc(NC(=O)c2ccc(-c3nn4c(c3C(N)=O)Nc3ccc(N5CCN(C6CC(c7ccc(N[C@H]8CCC(=O)NC8=O)cc7)C6)CC5)cc3CC4)c(F)c2C)n1` (stereo partly drawn) [Example B72, (S)-7-(4-(3-(4-((2,6-dioxopiperidin-3-yl)amino)phenyl)cyclobutyl)piperazin-1-yl)-2-(2-fluoro-3-methyl-4-((6-methylpyridin-2-yl)carbamoyl)phenyl)-9,10-dihydro-4H-benzo[d]pyrazolo[1,5-a][1,3]diazepine-3-carboxamide], the IC50 in the assay with HEK-293 cells is greater than 10000 nM. Besides, the half-maximal degradation concentration (DC50) at BTK came out at 6.23 nM.
The corresponding values for `Cc1cccc(NC(=O)c2ccc(-c3nn4c(c3C(N)=O)Nc3ccc(N5CCN(C6CN(c7ccc(N8CCC(=O)NC8=O)cc7)C6)CC5)cc3CC4)c(F)c2C)n1` [Example B66, 7-(4-(1-(4-(2,4-dioxotetrahydropyrimidin-1(2H)-yl)phenyl)azetidin-3-yl)piperazin-1-yl)-2-(2-fluoro-3-methyl-4-((6-methylpyridin-2-yl)carbamoyl)phenyl)-9,10-dihydro-4H-benzo[d]pyrazolo[1,5-a][1,3]diazepine-3-carboxamide] are greater than 10000 nM and 1.35 nM.
For `COc1cc(Oc2ccccc2)ccc1-c1nn2c(c1C(N)=O)Nc1ccc(N3CCN(CC4CCN(c5ccc(N6CCC(=O)NC6=O)cc5)CC4)CC3)cc1CC2` [Example A36, 7-(4-((1-(4-(2,4-dioxotetrahydropyrimidin-1(2H)-yl)phenyl)piperidin-4-yl)methyl)piperazin-1-yl)-2-(2-methoxy-4-phenoxyphenyl)-9,10-dihydro-4H-benzo[d]pyrazolo[1,5-a][1,3]diazepine-3-carboxamide], the IC50 in the assay on HEK-293 cells was 148 nM. The compound also gave a DC50 on BTK of 3.6 nM.
For the compound `Cc1cccc(NC(=O)c2ccc(-c3nn4c(c3C(N)=O)Nc3ccc(N5CCN(CCc6cc(F)c(C7CCC(=O)NC7=O)c(F)c6)CC5)cc3CC4)nc2C)n1` (centres unmarked) [Example B39, 7-(4-(4-(2,6-dioxopiperidin-3-yl)-3,5-difluorophenethyl)piperazin-1-yl)-2-(6-methyl-5-((6-methylpyridin-2-yl)carbamoyl)pyridin-2-yl)-9,10-dihydro-4H-benzo[d]pyrazolo[1,5-a][1,3]diazepine-3-carboxamide], the IC50 in the assay with HEK-293 cells is greater than 10000 nM. For the same compound, the DC50 at BTK was 5.66 nM.
Turning to `NC(=O)c1c(-c2ccc(Oc3ccccc3)cc2)nn2c1Nc1ccc(C3CCN(CC4CCN(c5ccc(N6CCC(=O)NC6=O)cc5)CC4)CC3)cc1CC2` [Example A30, 7-(1-((1-(4-(2,4-dioxotetrahydropyrimidin-1(2H)-yl)phenyl)piperidin-4-yl)methyl)piperidin-4-yl)-2-(4-phenoxyphenyl)-9,10-dihydro-4H-benzo[d]pyrazolo[1,5-a][1,3]diazepine-3-carboxamide], in the assay on HEK-293 cells, the IC50 was found to be 28.7 nM. Besides, on BTK, it took 1.58 nM to reach half-maximal degradation (DC50).
With `NC(=O)c1c(-c2ccc(Oc3ccccc3)cc2)nn2c1Nc1ccc(NC3CCN(c4ccc5c(c4)C(=O)N(C4CCC(=O)NC4=O)C5=O)CC3)cc1CC2` (centres unmarked) [Example A8, 7-((1-(2-(2,6-dioxopiperidin-3-yl)-1,3-dioxoisoindolin-5-yl)piperidin-4-yl)amino)-2-(4-phenoxyphenyl)-9,10-dihydro-4H-benzo[d]pyrazolo[1,5-a][1,3]diazepine-3-carboxamide], the IC50 in the assay on HEK-293 cells amounted to 280 nM. At BTK, the half-maximal degradation concentration (DC50) was found to be 2.97 nM.
On to `COc1cc(F)c(F)cc1C(=O)NCc1ccc(-c2nn3c(c2C(N)=O)Nc2ccc(N4CCN(CC5CCN(c6ccc(N7CCC(=O)NC7=O)cc6)CC5)CC4)cc2CC3)cc1` [Example C30, 2-(4-((4,5-difluoro-2-methoxybenzamido)methyl)phenyl)-7-(4-((1-(4-(2,4-dioxotetrahydropyrimidin-1(2H)-yl)phenyl)piperidin-4-yl)methyl)piperazin-1-yl)-9,10-dihydro-4H-benzo[d]pyrazolo[1,5-a][1,3]diazepine-3-carboxamide], for which the IC50 in the assay on HEK-293 cells was greater than 10000 nM. Further, half-maximal degradation on BTK (DC50) was put at 0.786 nM.
Turning to `COc1ccccc1C(=O)NCc1ccc(-c2nn3c(c2C(N)=O)Nc2ccc(N4CCN(CC5CCN(c6ccc(N7CCC(=O)NC7=O)cc6)CC5)CC4)cc2CC3)cc1F` [Example C19, 7-(4-((1-(4-(2,4-dioxotetrahydropyrimidin-1(2H)-yl)phenyl)piperidin-4-yl)methyl)piperazin-1-yl)-2-(3-fluoro-4-((2-methoxybenzamido)methyl)phenyl)-9,10-dihydro-4H-benzo[d]pyrazolo[1,5-a][1,3]diazepine-3-carboxamide], the IC50 with HEK-293 cells was found to be 142 nM. Further, the DC50 on BTK is 0.848 nM.
As to `Cc1cccc(NC(=O)c2ccc(-c3nn4c(c3C(N)=O)Nc3ccc(N5CCN(CCc6cccc7c6oc(=O)n7C6CCC(=O)NC6=O)CC5)cc3CC4)c(F)c2C)n1` (centres unmarked) [Example B61, 7-(4-(2-(3-(2,6-dioxopiperidin-3-yl)-2-oxo-2,3-dihydrobenzo[d]oxazol-7-yl)ethyl)piperazin-1-yl)-2-(2-fluoro-3-methyl-4-((6-methylpyridin-2-yl)carbamoyl)phenyl)-9,10-dihydro-4H-benzo[d]pyrazolo[1,5-a][1,3]diazepine-3-carboxamide], in the assay with HEK-293 cells, the IC50 was greater than 10000 nM. Moreover, half-maximal degradation on BTK (DC50) was put at 1.09 nM.
As for `Cc1c(C(=O)Nc2cscn2)ccc(-c2nn3c(c2C(N)=O)Nc2ccc(N4CCN(CC5CN(c6ccc(N7CCC(=O)NC7=O)cc6)C5)CC4)cc2CC3)c1F` [Example B97, 7-(4-((1-(4-(2,4-dioxotetrahydropyrimidin-1(2H)-yl)phenyl)azetidin-3-yl)methyl)piperazin-1-yl)-2-(2-fluoro-3-methyl-4-(thiazol-4-ylcarbamoyl)phenyl)-9,10-dihydro-4H-benzo[d]pyrazolo[1,5-a][1,3]diazepine-3-carboxamide], in the assay with HEK-293 cells, the IC50 is greater than 10000 nM. For the same compound, the DC50 on BTK was 2.11 nM.
